Laboratory results published in patent publication US20210188813A1, “EZH2 INHIBITOR AND PHARMACEUTICALLY ACCEPTABLE SALTS AND POLYMORPHIC SUBSTANCES THEREOF, AND APPLICATION OF EZH2 INHIBITOR” (SHANGHAI HAIYAN PHARMACEUTICAL TECHNOLOGY CO., LTD., priority 2018, published 2021).
pIC50: −log10 of the molar value.

What was measured:
[1] = Polymorph screening by mixing shaking; type: physicochemical; conditions: mixed crystal forms I to III shaken 1 day at room temperature in different solvents
Description: Mixing shaking test was conducted using different solvent systems. 2 mg of each crystal form of crystal form I to crystal form III was weighed into a glass vial to obtain the mixed crystals, the appropriate amount of organic reagents in Table 6 were added, screwed the cap, and a sealing film was used to prevent the solvent from volatilizing, shaken for 1 days at room temperature and 25 r/min, taken out and centrifuged at 10000 r/min for 10 min at 4° C., the supernatant was poured, and the solid was placed in a oven at 50° C. for drying, the resulting solid was collected and sent for XRPD test.

PRC2 (EZH2-Y641F) = biological target: T1, PRC2 (EZH2-Y641F) (Homo sapiens, UniProt Q15910, Y641F); experiment: In vitro methyltransferase assay; type: biochemical
T1 construct: purchased Active motif
Description: Recombinant PRC2 (EZH2-Y641F) was purchased from Active motif, S-adenosyl-methionin chloride (SAM) and Poly-L-lysine (PLL) were purchased from Sigma-Aldrich, H3(1-50)K27me1 peptide was purchased from Cisbio. LANCEUltra (Perkinelmer) system was used for detection. For the enzyme activity test, tested compounds are 1:3 diluted for 8-points, and added into each well, then 100 ng enzyme is added. And then the buffer [20 mM Tris pH8.5, 2 mM MgCl2, 0.01% Tween-20, 1 mM TCEP] containing […]/250 nM H3 (1-50)K27me1 premixtures are added. After 3 hours enzyme reaction at RT, the premixed detection buffer (PLL, Europium antibody and Ulight) is added, and react for 1 h at RT, then read fluorescence on Tecan infinite pro. IC50s are counted by XLfit using a four-parameter model.

Pfeiffer cells = experiment: Cell proliferation assay, Pfeiffer; type: cell-based; conditions: Homo sapiens, Pfeiffer, 144 h; 6 days' growth, cell counting kit-8
Description: Cell lines Pfeiffer (CRL-2632), suDHL-6 (CRL-2959) and suDHL-10 (CRL-2963) were obtained from ATCC. All cell lines were cultured in RPMI-1640 medium (Gibco) plus 10% FBS (Gibco). Cells are harvested by centrifuge and densities are determined using a CounterStar cell counter. Appropriate number of cells are plated in a96-well culture plate and pre-incubate overnight. Tested compounds are 1:3 diluted for 8-points and added into each well. After 6 days' growth, cell counting kit-8 (Dojindo) is used to detect cell viability and read on Tecan infinite pro. IC50s are counted by XLfit using a four-parameter model.

T1 sequence (Q15910 whole entry Y641F): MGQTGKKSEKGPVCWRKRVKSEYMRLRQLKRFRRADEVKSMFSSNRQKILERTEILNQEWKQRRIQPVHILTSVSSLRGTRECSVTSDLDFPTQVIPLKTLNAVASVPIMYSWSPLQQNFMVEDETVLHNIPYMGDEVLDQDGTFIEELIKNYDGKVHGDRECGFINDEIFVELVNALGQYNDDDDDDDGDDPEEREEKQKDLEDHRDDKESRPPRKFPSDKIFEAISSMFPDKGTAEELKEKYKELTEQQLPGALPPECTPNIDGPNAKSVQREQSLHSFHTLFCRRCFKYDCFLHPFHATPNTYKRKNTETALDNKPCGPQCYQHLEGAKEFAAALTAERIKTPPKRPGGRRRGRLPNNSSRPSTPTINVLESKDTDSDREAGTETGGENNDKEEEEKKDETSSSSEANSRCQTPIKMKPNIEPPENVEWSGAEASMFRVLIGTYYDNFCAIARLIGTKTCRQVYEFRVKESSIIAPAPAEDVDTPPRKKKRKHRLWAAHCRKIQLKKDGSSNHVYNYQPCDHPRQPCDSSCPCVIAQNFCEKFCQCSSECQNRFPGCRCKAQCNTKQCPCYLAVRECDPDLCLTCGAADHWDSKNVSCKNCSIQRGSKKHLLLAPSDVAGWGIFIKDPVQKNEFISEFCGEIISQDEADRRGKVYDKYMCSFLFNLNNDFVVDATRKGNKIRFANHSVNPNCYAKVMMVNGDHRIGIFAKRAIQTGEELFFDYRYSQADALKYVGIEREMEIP
T1 sequence (O75530 whole entry partner): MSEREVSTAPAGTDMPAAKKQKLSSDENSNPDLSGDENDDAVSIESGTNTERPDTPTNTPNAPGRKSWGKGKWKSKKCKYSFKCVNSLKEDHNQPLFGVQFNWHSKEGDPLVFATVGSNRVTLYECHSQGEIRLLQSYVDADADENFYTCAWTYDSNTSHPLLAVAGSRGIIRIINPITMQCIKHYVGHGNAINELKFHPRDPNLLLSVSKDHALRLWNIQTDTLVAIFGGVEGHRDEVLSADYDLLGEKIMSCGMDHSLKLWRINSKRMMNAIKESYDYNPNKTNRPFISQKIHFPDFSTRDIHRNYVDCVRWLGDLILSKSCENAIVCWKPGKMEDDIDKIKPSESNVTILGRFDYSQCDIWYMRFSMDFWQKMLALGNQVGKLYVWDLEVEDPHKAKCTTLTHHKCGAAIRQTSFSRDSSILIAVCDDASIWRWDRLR
T1 sequence (Q15022 whole entry partner): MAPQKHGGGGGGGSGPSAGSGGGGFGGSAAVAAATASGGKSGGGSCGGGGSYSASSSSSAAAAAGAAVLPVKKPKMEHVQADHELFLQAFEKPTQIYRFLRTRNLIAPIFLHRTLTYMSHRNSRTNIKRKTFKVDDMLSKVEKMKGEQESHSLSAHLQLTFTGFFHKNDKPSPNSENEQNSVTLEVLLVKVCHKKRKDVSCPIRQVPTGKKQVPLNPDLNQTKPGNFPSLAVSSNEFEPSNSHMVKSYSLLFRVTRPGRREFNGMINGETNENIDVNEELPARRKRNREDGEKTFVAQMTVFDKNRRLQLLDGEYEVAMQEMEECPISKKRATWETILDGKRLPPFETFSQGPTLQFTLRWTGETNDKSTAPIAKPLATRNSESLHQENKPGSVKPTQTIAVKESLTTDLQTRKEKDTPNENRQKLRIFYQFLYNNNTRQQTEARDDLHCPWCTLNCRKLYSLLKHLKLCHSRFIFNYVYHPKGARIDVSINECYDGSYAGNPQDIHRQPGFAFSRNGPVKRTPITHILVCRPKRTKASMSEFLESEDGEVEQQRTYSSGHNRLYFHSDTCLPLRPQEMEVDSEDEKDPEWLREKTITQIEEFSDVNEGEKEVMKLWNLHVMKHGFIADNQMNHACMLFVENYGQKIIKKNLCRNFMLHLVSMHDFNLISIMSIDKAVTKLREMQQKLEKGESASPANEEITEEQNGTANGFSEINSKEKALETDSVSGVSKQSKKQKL
T1 sequence (Q09028 whole entry partner): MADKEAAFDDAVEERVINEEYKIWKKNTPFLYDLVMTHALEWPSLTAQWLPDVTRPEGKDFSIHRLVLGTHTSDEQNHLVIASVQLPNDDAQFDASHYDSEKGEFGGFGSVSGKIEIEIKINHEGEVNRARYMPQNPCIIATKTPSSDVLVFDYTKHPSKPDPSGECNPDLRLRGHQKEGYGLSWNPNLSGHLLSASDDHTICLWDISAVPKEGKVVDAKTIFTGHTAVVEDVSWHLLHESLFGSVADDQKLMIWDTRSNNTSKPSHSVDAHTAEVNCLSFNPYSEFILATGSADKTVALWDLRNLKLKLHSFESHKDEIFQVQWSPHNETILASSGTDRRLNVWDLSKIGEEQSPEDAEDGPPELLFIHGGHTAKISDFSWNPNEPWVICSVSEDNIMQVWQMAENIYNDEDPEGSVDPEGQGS
T1 sequence (Q6ZN18 whole entry partner): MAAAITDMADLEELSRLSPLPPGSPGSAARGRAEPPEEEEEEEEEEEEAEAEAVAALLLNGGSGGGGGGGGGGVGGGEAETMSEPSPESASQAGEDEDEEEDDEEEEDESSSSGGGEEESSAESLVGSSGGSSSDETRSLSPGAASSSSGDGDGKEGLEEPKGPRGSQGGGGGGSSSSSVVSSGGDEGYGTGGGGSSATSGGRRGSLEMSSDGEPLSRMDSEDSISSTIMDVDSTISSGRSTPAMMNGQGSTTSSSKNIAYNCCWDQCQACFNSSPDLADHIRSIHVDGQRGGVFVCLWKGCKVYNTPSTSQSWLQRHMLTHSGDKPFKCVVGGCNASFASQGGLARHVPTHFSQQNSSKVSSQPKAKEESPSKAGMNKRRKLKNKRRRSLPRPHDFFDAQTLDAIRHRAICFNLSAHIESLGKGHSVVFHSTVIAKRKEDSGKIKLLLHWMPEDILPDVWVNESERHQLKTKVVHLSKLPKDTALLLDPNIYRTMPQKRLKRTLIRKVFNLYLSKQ

| pIC50 (PRC2 (EZH2-Y641F)) | SMILES | stability of crystal form [1] | pIC50 (Pfeiffer cells) |
| --- | --- | --- | --- |
|  | CCc1c(C(=O)NCc2c(C)cc(C)[nH]c2=O)cc2c(cnn2C)c1N(CC)[C@H]1CC[C@H](N2CC(OC)C2)CC1 [Crystal form V] | stable crystal form |  |
| < 5.00 | CCN(c1cc(C(=O)NCc2c(C)cc(C)[nH]c2=O)c(C)c2c1cnn2C)C1CCOCC1 [D1, N-((4,6-dimethyl-2-oxo-1,2-dihydropyridin-3-yl)methyl)-4-(ethyl (tetrahydro-2H-pyran-4-yl)amino)-1,7-dimethyl-1H-indazole-6-carboxamide] |  | < 5.00 |
